The values below are quoted from earlier work in patent US12599555B2, “Formulation” (priority 2019, dated 2026).

SMILES strings stand for the structures.

For the series the following is noted: administered by inhalation in the treatment of asthma.

Consider `O=C([O-])c1cc(=O)c2c(OCC(O)COc3cccc4oc(C(=O)[O-])cc(=O)c34)cccc2o1.[Na+].[Na+]` [sodium cromoglicate, disodium 5,5′-[(2-hydroxytrimethylene)dioxy]bis-[4-oxo-4H-1-benzopyran-2-carboxylate]], for which the bioavailability is listed as 10-15%.
